Five molecules from patent publication US5264589A, “Merocyanine protein error indicators” (Miles Inc., priority 1991, dated 1993) can be followed below.

The nature of data set [1]: pKa of the indicator compound. The class given is physicochemical.
A further data set deals with human serum albumin (Homo sapiens, UniProt P02768). Description: Liquid assay for human serum albumin (increase in absorbance). The settings on record: albumin 100 mg/dl, 200-250 mM Na+ or K+ citrate buffer. On the procedure:
The utility of the merocyanine protein error indicator compounds of the present invention in a liquid assay for the determination of protein levels in a liquid test sample is illustrated in Table 7 below. […] The solution was then treated with sufficient human serum albumin to make the albumin concentration 100 mg/dl and the absorbance was measured again. The reported increase in absorbance (Δ abs) is proportional to the amount of albumin present, and is indicative of the relative sensitivity of the dye for measuring protein.

Data set [2] deals with T1, human serum albumin (HSA) (Homo sapiens, UniProt P02768).
T1 construct: purchased Miles, Inc., Elkhart, Ind; (Pentex)
Description: Dose response of reagent strips including SPDIB (K/S reflectance, Clinitek 200). The settings on record: analytical test strips including 0.3 mM SPDIB; 50 mM potassium citrate, pH 2.5; K/S at 25 seconds; FIG. 7. The method, then:
A buffered liquid sample (50 mM potassium citrate, pH 2.5) which was shown by immunoassay to be devoid of albumin, was spiked to various clinically significant levels with Pentex® human serum albumin (HSA) (Miles, Inc., Elkhart, Ind.). Using a Clinitek 200® Instrument (Miles, Inc., Elkhart, Ind.) protein measurements were made using analytical test strips including 0.3 mM SPDIB.
Resolution was quantitatively expressed in delta K/S between albumin levels, as shown FIG. 7. K/S are calculated from the formula: [formula] wherein R is the fraction of reflectance from the test device, K is a constant, and S is the light scattering coefficient of the particular reflecting medium. The above equation is a simplified form of the well-known Kubelka-Munk equation (See Gustav Kortum, "Reflectance Spectroscopy," pp. 106-11, Springer Verlas, New York (1969). K/S was determined at 25 seconds.

Molecules are shown by their SMILES.

Sequence of human serum albumin (P02768 25-609): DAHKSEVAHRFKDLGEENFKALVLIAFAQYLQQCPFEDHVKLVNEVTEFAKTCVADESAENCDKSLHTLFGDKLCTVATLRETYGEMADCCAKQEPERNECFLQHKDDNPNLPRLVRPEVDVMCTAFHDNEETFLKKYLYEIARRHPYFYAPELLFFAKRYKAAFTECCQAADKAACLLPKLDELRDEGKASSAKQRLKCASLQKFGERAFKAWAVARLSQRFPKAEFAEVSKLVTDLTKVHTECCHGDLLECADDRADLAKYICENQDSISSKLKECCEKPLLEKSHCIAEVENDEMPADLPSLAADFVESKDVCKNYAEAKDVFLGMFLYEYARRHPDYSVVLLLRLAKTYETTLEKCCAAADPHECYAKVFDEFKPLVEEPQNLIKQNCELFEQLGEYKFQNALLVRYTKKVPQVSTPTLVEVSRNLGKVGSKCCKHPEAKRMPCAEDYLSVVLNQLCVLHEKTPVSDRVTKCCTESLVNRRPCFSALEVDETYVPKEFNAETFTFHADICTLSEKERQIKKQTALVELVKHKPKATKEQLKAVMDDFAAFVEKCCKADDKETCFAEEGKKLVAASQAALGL
T1 sequence (P02768 25-609): as above

As to `CC1(C)C(C=Cc2cc(I)c(O)c(I)c2)=[N+](CCCS(=O)(=O)[O-])c2ccccc21` [Compound D, 1-(ω-sulfopropyl)-2-(4'-hydroxy-3'-5'-diiodostyryl)-3,3-dimethylindoleninium betaine], the “COMPD. pKa” value in data set [1] stood at 3.65. On human serum albumin (compound conc. 2.0 × 10^-5 M, assay pH 3.0, λ 541 nm), the “ΔABS (increase in absorbance)” value is 0.402. In addition, in data set [2], the “resolution between protein levels (delta K/S)” value is reported as “significant resolution between protein levels” and the “response of the strip to different levels of protein” value is listed as “sensitive to a wide range of protein concentrations”.
With `CC1(C)C(C=Cc2cc(I)c(O)c(I)c2)=[N+](CCCCS(=O)(=O)[O-])c2ccccc21` [Compound E, 1-(ω-sulfobutyl)-2-(4'-hydroxy-3',5'-diiodostyryl)-3,3-dimethylindoleninium betaine], the “COMPD. pKa” value in data set [1] came out at 3.52. Also, on human serum albumin (compound conc. 1.8 × 10^-5 M, assay pH 3.0, λ 535 nm), the “ΔABS (increase in absorbance)” value was 0.322.
`O=S(=O)([O-])CCCC[n+]1c(C=Cc2cc(I)c(O)c(I)c2)sc2ccccc21` [Compound B, 1-(ω-sulfobutyl)-2-(4'-hydroxy-3',5'-diiodostyryl)-benzothiazolium betaine]: in data set [1], the “COMPD. pKa” value stood at 4.35. For the same molecule, the “ΔABS (increase in absorbance)” value at human serum albumin (compound conc. 2.5 × 10^-5 M, assay pH 3.5, λ 506 nm) is recorded as 0.027.
In the case of `CC1(C)C(C=Cc2cc(I)c(O)c(I)c2)=[N+](CCS(=O)(=O)[O-])c2ccccc21` [Compound C, 1-(ω-sulfoethyl)-2-(4'-hydroxy-3',5'-diiodostyryl)-3,3-dimethylindoleninium betaine], the “COMPD. pKa” value in data set [1] was 3.65. Also, the “ΔABS (increase in absorbance)” value at human serum albumin (compound conc. 1.5 × 10^-5 M, assay pH 3.0, λ 543 nm) was 0.255.
On to `CC1(C)C(C=Cc2cc(Br)c(O)c(Br)c2)=[N+](CCCS(=O)(=O)[O-])c2ccccc21` [Compound A, 1-(ω-sulfopropyl)-2-(4'hydroxy-3',5'-dibromostyryl)-3,3-dimethylindoleninium betaine], for which, in data set [1], the “COMPD. pKa” value worked out at 3.59. Further, the “ΔABS (increase in absorbance)” value on human serum albumin (compound conc. 1.0 × 10^-5 M, assay pH 3.0, λ 522 nm) came to 0.156.
